PMC10236072, “Microwave-assisted synthesis of [^52Mn]Mn-porphyrins: Applications in cell and liposome radiolabelling” (Nuclear Medicine and Biology, 2022)
Where two headings read alike, the source gives them in different places.

Columns and labels:
[1] = Log P (1-octanol/water partition, gamma counting); type: physicochemical; details: 1-octanol/H2O, mean ± SD, n = 3 (free 52Mn n = 2)
Procedure: An aliquot (500 μL) of each layer was then added to an Eppendorf. An aliquot (20 μL) of the [^52Mn]Mn-porphyrin reaction mixture was then added to the two layers and vortexed for 5 min. After mixing, the suspension was […] briefly for 10 s to settle the layers, and 200 μL of each layer was extracted. The octanol and H2O layers were then gamma counted (Wallac CompuGamma) and the Log P was calculated as below: LogP=LogActivityCPMin octanol layer/ActivityCPMinwaterlayer

[2] = design: method as in PMID 3821476; details: up to 9 days, UV-spectroscopy; cited from earlier work
various cell lines = details: cited from earlier work
[3] = Solubility in aqueous and organic solvents; type: physicochemical

[Cl][52Mn][Cl] [Buffered ^52Mn, [^52Mn]MnCl2]
Log P value [1]: −2.4 ± 0.7

O=S(=O)([O-])c1ccc(-c2c3nc(c(-c4ccc(S(=O)(=O)[O-])cc4)c4ccc([n-]4)c(-c4ccc(S(=O)(=O)[O-])cc4)c4ccc([n-]4)c(-c4ccc(S(=O)(=O)[O-])cc4)c4nc2C=C4)C=C3)cc1.[Mn+3] [Mn-(5)]
stability in human plasma [2]: stable

[89Zr+4].[O-]c1cccc2cccnc12.[O-]c1cccc2cccnc12.[O-]c1cccc2cccnc12.[O-]c1cccc2cccnc12 [[^89Zr]Zr-oxine]
cellular retention (various cell lines; later timepoints (5–7 days)): at least 30% | cellular retention (various cell lines; various cell lines, after 24 h): > 65%

CNS(=O)(=O)c1ccc(F)c(-c2c3nc(c(-c4c(F)ccc(S(=O)(=O)NC)c4F)c4ccc([nH]4)c(-c4c(F)ccc(S(=O)(=O)NC)c4F)c4nc(c(-c5c(F)ccc(S(=O)(=O)NC)c5F)c5ccc2[nH]5)C=C4)C=C3)c1F [porphyrin 2]
solubility [3]: favourable solubility in aqueous and organic solvents | solubility ([3]; listed as Porphyrin 2): favourable solubility in both aqueous and organic solvents
